# Source: patent US20230381205A1, “COMPOSITIONS AND METHODS FOR TREATING NEURONAL DISORDERS WITH CANNABINOIDS” (INMED PHARMACEUTICALS INC., priority 2020, published 2023)
# Assays:
# [1] = system: differentiated SH-SY5Y human neuronal cells; assay: MTT assay: cytotoxicity of the substance alone (primary screen, no added insult); assay type: cell-based
# Experimental: (§1) Cell Culture and Differentiation: The SH-SY5Y human neuronal cell line was derived from neuroblastoma established from a metastatic bone tumor (patient with neuroblastoma). The cells were maintained in DMEM:F12 culture medium supplemented with 10% FBS and 1% Antibiotic-Antimycotic penicillin/streptomycin (growth medium) at 37° C. in a humidified atmosphere of 5% CO2. To induce neuronal differentiation of SH-SY5Y cells, culture media was replaced by a growth medium containing Retinoic Acid (RA) for 4-5 days at 37° C. in a humidified atmosphere of 5% CO2.
# (§2) Compounds and Dosing Formulations: Selected cannabinoids: CBD, CBDA, CBC, CBG, CBGA, CBN, CBND and Δ^9-THC were procured from Cayman Chemicals and TRC. Ethanol (100%) was used as the solvent to prepare 1 and 10 mM stock solutions. Treatment concentrations for CBGA were prepared at 0.5 μM, 1.5 μM, 5 μM, 10 μM, 15 μM, 20 μM. Treatment concentrations for CBD, CBDA, CBC, CBN, CBND and Δ^9-THC were prepared at 0.5, 1.5, 5 and for CBG at 0.5 μM, 1.5 μM, 5 μM, 10 μM, 15 μM. Treatments were prepared directly in the control medium (DMEM:F12+5% FBS+1% Antibiotic-Antimycotic) by using appropriate stock solutions.
# (§3) Evaluation of Cytotoxicity and Neuroprotection: Evaluation of cannabinoids neuroprotection and cytotoxicity on differentiated SH-SY5Y human neuronal cells was carried out by MTT (3-(4,5-dimethylthiazol-2-yl)-2,5-diphenyltetrazolium bromide) assay. Initially, cannabinoid cytotoxicity and neuroprotection were evaluated in a primary screen assay without the presence of cytotoxicity inducing insult agents. […] The Retinoic Acid (RA) differentiated SH-SY5Y neuronal cells were seeded onto 96-well plates (10,000 cells/well) in DMEM:F12 complete medium. Cells were differentiated for 4-5 days in the presence of RA.
# (§4) MTT Assay: For the MTT assay, differentiated SH-SY5Y neuronal cells were treated with cannabinoids at various concentrations for 72 hrs in the presence of STSR at 75 nM, 100 nM, 150 nM and 200 nM or for 24 hrs in the presence of […] at 5 μM, respectively and processed to determine cytotoxicity. Briefly, 5 mg/mL of methylthiazolyldiphenyl-tetrazolium bromide (Sigma-Aldrich) stock solution was prepared in PBS. Following treatment of SH-SY5Y neuronal cells with cannabinoids for 72 hrs, the cells were incubated with 20 μL of MTT stock solution in 200 μL DMEM for 2 hrs at 37° C. Following subsequent washes with PBS, 200 μL of isopropanol was added to each well. The resulting change in color from dissolving formazan salt was immediately quantified using a spectrophotometer (BMG Labtech) at a wavelength of 570 nm. […] The results are illustrated in FIGS. 1-7.
# [2] = system: Tuj1; assay: Western blot of Tuj1 neuritogenesis marker; assay type: cell-based, human; conditions: 5 μM and 10 μM, FIG. 13
# Experimental: FIG. 13 CBGA upregulates the expression of Tuj1 neuritogenesis marker. Developmental changes in prominent intracellular marker of neurite growth, neuron-specific III β-tubulin (Tuj1) was determined using Western blot analysis. CBGA increased the expression of Tuj1 in differentiated SH-SY5Y cells. FIG. 13 also provides a histogram showing densitometric analysis of relative expression of Tuj1. β-Actin was used as a loading control. P<0.05 for CBGA 10 μM vs Control by One-Way ANOVA.
# For Western blot analysis, control and the treated cells were harvested and lysed in cold lysis buffer (150 mM NaCl, 50 mM Tris-HCl, 1% Triton X-100, 0.1% SDS, 0.5% Sodium deoxycholate, and 1% protease-phosphatase inhibitor mixture). The supernatants were collected and protein concentrations were determined using Bio-Rad protein assay (Bio-Rad Laboratories). Whole cell lysates (10 μg) were subjected to 10% SDS-polyacrylamide electrophoresis and transferred to nitrocellulose membrane. […]
# [3] = system: differentiated SH-SY5Y human neuronal cells; assay: MTT assay: neuroprotection from Aβ1-42 induced cytotoxicity; assay type: cell-based; conditions: FIG. 7
# Experimental: as §1, §2, §3, §4
compound,measurement,setting,value
"CCCCCc1cc(O)c(C/C=C(\C)CCC=C(C)C)c(O)c1C(=O)O [CBGA, 3-[(2E)-3,7-dimethylocta-2,6-dienyl]-2,4-dihydroxy-6-pentylbenzoic acid]",effect on survival in primary screen,"[1]; 1.5 μM, 5 μM and 15 μM, FIG. 1",pro-survival neuroprotective effect
same,Cell Death (%) vs Vehicle Control,"[1]; 15 μM, pre-screen, FIG. 1",pro-survival
same,cell death under basal conditions,"[1]; CBGA alone up to 20 μM, FIG. 4",did not result in cell death
same,cell proliferation under basal conditions,"[1]; CBGA alone up to 20 μM, FIG. 4",induced dose-dependent cell proliferation
same,"TuJ1 expression, Western blot",[2],promotes upregulation of TuJ1 expression
same,protection from Aβ1-42 induced insult,"[3]; 0.15 μM, 0.5 μM, 1.5 μM, 5 μM, 10 μM and 15 μM with Aβ1-42 5 μM, dose-dependent",protected cells
same,effect with Aβ1-42 at the highest concentration,[3]; 20 μM with Aβ1-42 5 μM,resulted in cell death
